Test results: US9682994B2, “Inhibitors of retroviral replication” (The Scripps Research Institute, priority 2011, dated 2017)

Experiments:
[1] = Mouse mini-PK, plasma levels by LC-MS/MS; type: in vivo, C57Bl-6 mice
Experimental: In vitro studies compared murine and human hepatic microsomes (150 donor mixed male/female pool). […] C57B16 mice were dosed at 10 mg/kg and drug levels were quantitated in plasma at 1, 6, and 24 h by LC-MS/MS (Table 1B).

Tat = experiment: Biotinylated compound streptavidin-bead pull-down of Tat; type: binding, HIV-1; conditions: flag-tagged Tat expressed in cells or recombinant Tat
Experimental: HEK293T cells were transfected with flag-tagged Tat 101 a.a. (Tat-F-101-wt), a shorter Tat version with 86 a.a. (Tat-F-86-wt), Tat 86 a.a. mutated in the basic domain (Tat-F-BRM), flag-tagged CDK11 (CDK11-F), flag-tagged 9G8 (9G8-F) and empty vector control.
Recombinant Tat protein was incubated with Bio-dCA streptavidin-coated beads in the presence or absence of an excess of non-biotinylated dCA (represented as molar equivalent [eq.] of Bio-dCA). Raltegravir and recombinant GST-9G8 were used as a negative control competitor or as negative protein-binding control, respectively.
DYNABEADS® MYONE™ Streptavidin T1 (12.5 μl slurry) (Invitrogen) were pre-saturated with 1.88 μl of 1 mM in DMSO of Biotin alone or Bio-dCA and incubated for 1 h at room temperature with orbital rocking, plus an additional 30 min with Biotin (0.63 μl of 1 mM in DMSO). Protein extracts (250 μg per sample) were incubated with the pre-saturated beads in lysis buffer supplemented with 0.1% BSA for 1 h at 4° C. with orbital rocking. After incubation, the beads were washed three times with lysis buffer.
For the pull-down of recombinant Tat (#2222 of NIH) and GST-9G8, streptavidin-agarose beads (40 μl slurry) were pre-saturated with 1.5 μl of 1 mM in DMSO, Biotin alone, or Bio-dCA and incubated for 1 h at room temperature. […] After incubation, the beads were washed three times with PBS and proteins were eluted as before.

NF-kB reporter construct = experiment: TNF-α activation of NF-kB luciferase reporter in TE671 cells; type: cell-based
Experimental: FIG. 8B: TE671 cells were transfected with an NF-kB luciferase reporter plasmid. The following day cells were treated with TNF-α in presence or absence of dCA. Cells were lysed 5 hours later and Luciferase activity was measured as in FIG. 8A.
TE671 cells were plated at 6.25×10^4 per well in a 24-well plate. Cells were transfected twenty-four hours later with either 200 ng or 400 ng of NF-kB-Luc (Promega, Cat No. E8491) using Fugene 6 (Roche) per manufacturer's instruction. […] Cells were lysed 5 hours later with 1× Lysis Buffer and luciferase activity was measured using the luciferase Assay System (Promega) on a Berthhold luminometer. Protein concentration was determined by Bradford assay. Results corresponding to the adjustment of the luciferase activity per protein concentration of each sample are shown as Relative light units (RLU). Experiments were performed in triplicate.

HIV-1 pNL4-3 = experiment: Acute HIV-1 infection, HeLa-CD4-LTR-LacZ reporter CPRG assay; type: cell-based
Experimental: Forty-eight hours post infection a quantitative chlorophenol red-β-D-galactopyranoside (CPRG) assay was performed.
Twenty-four hours later HIV-1 pNL4-3 was added to the cells of both experiment sets (MOI>>10) in the presence of testing compound or DMSO control. CPRG assay performed 48 h later.
HeLa-CD4 cells were infected with HIV-1 pNL4-3 in the presence of the indicated compounds or DMSO. Forty hours post infection a CPRG assay was performed. […] Error bars represent standard deviation.
P42 cells were plated at 1×10^4 cells per well of 96 well. Twenty-four hours later HIV-1 pNL4-3 was added to the wells in the presence of testing compound or DMSO control in a total volume of […] Forty hours post infection cells were disrupted in lysis buffer (60 mM Na2HPO4, 40 mM NaH2PO4, 10 mM KCl, 10 mM MgSO4, 2.5 mM EDTA, 50 mM β-mercaptoethanol, 0.125% Nonidet P-40) and a quantitative chlorophenol red-β-D-galactopyranoside (CPRG)-based (Boehringer Mannheim) assay was performed. The cell extracts were incubated in a reaction buffer (0.9 M phosphate buffer [pH 7.4], 9 mM MgCl2, 11 mM β-mercaptoethanol, 7 mM CPRG) until a red color developed (from approximately 10 min to 4 h) and measured with an LP400 (Becton Dickinson) plate reader at 572 nm. Experiments were performed in triplicate.
Transcription of the HIV-1 provirus is regulated by both viral and cellular transcription factors. Before Tat is produced, low-level basal transcription from the viral promoter is initiated by cellular factors, such as the nuclear factor-kappa B (NF-kB), Sp1, TATA-binding protein and RNAPII. A desirable Tat inhibitor should block Tat-mediated activation of the viral promoter without affecting its basal transcription, which would result in cellular toxicity, given the shared transcription factors of the HIV promoter and cellular genes.

Q: For `CN(C)[C@H]1C[C@@]23CC[C@@]4(O2)C(=CC[C@]2(C)C(c5ccc6ccncc6c5)=CC[C@H]24)C=C3[C@@H](O)[C@@H]1O` [dCA, didehydro-Cortistatin A], which “drug levels relative to the EC50 of cell-based assays” value ([1]; 1 h after dosing, 10 mg/kg) is on record?
A: Its value is “greater than 1000 fold”.

Q: What about the “plasma drug levels for all mice” value ([1]; 24 h post dose, 10 mg/kg) of the same compound?
A: The value was “above 30 nM”.

Q: What about the health of mice ([1]; after 24 h treatment, 10 mg/kg) of the same compound?
A: Its health of mice is “still healthy”.

Q: What about the bioavailability in mice ([1]; mouse, in vivo) of the same compound?
A: Its bioavailability in mice is “good bioavailability”.

Q: And the “interaction with Tat (pull-down)” value (Tat)?
A: The value was “interacted directly”.

Q: And the “TNFα activation of an NF-κB reporter construct” value (NF-kB reporter construct)?
A: The value was “no effect”.

Q: And the “maximal inhibition following acute infection” value (HIV-1 pNL4-3; acute infection)?
A: The value was 75-85%.

Q: And the EC50 (HIV-1 pNL4-3; highest MOI, 48 h post infection, read-out: EC50, inhibition of transcription (β-gal activity))?
A: Its EC50 is 2.6 nM.

Q: And the “reduction in the EC50 by pre-treatment of cells” value (HIV-1 pNL4-3; pre-treatment for 24 h prior to infection)?
A: The value was 7 fold.

Q: And the reduction of infectivity (HIV-1 pNL4-3; two-day acute infection assay)?
A: The reduction of infectivity was 75-80%.
